Test results: US20230330093A1, “APPLICATION OF NITROGEN-CONTAINING SATURATED HETEROCYCLIC COMPOUND” (SHANGHAI PHARMACEUTICALS HOLDING CO., LTD., priority 2020, published 2023)

Test system: cynomolgus monkeys
Assay: 4-week safety study: serum biochemistry
Assay type: in vivo
Experimental: […] (1) Hematological and coagulation index examination were performed using a Bayer ADVIA2120 (Germany) and a Sysmex CA-1500 (Japan). (2) The serum biochemical examination was assessed using a HITACHI 7080 automated analyzer (Japan) and an Easylyte PLUS electrolyte analyzer (MEDICA, America). (3) The 24-h pooled urine of each animal was collected by a tray under each cage. Urinalysis was carried out using Uritest-300 (China). (4) The 24-h pooled faeces of each monkey were collected by a tray under each cage. Fecal occult blood was detected. (5) ACCESS 2 Chemiluminescence immunoassay was used for myocardial troponin (TropI, non-GLP) test.

SMILES: COC(=O)NCCCn1nc([C@@H](C)N(C(=O)[C@H]2CNCCO2)C2CC2)c2ccc(C)nc21 [compound of Formula I]
- BUN (Female, 20 mg/kg, d0): 6.1 ± 1.1 mmol/L
- CHOL (Female, 20 mg/kg, d0): 3.0 ± 0.5 mmol/L
- CPK (Female, 20 mg/kg, d0): 158.4 ± 63.5 U · L^−1
- CREA (Female, 20 mg/kg, d0): 59 ± 4 µM
- K (Female, 20 mg/kg, d0): 5.0 ± 0.3 mmol/L
- Na (Female, 20 mg/kg, d0): 149.4 ± 3.5 mmol/L
- BUN (Female, 20 mg/kg, d14): 5.4 ± 0.9 mmol/L
- CHOL (Female, 20 mg/kg, d14): 2.8 ± 0.2 mmol/L
- CPK (Female, 20 mg/kg, d14): 151.6 ± 45.2 U · L^−1
- CREA (Female, 20 mg/kg, d14): 52.4 ± 3.8 µM
- K (Female, 20 mg/kg, d14): 5.2 ± 0.2 mmol/L
- Na (Female, 20 mg/kg, d14): 149.6 ± 1.7 mmol/L
- BUN (Female, 20 mg/kg, d26): 6.3 ± 1.1 mmol/L
- CHOL (Female, 20 mg/kg, d26): 2.7 ± 0.3 mmol/L
- CPK (Female, 20 mg/kg, d26): 149.4 ± 58.7 U · L^−1
- CREA (Female, 20 mg/kg, d26): 51.2 ± 3.6 µM
- K (Female, 20 mg/kg, d26): 4.9 ± 0.5 mmol/L
- Na (Female, 20 mg/kg, d26): 149.2 ± 4.3 mmol/L
- BUN (Female, 20 mg/kg, d 56): 6.0 ± 0.6 mmol/L
- CHOL (Female, 20 mg/kg, d 56): 3.0 ± 0.1 mmol/L
- CPK (Female, 20 mg/kg, d 56): 129.0 ± 5.7 U · L^−1
- CREA (Female, 20 mg/kg, d 56): 51.5 ± 4.9 µM
- K (Female, 20 mg/kg, d 56): 5.0 ± 0.5 mmol/L
- Na (Female, 20 mg/kg, d 56): 147.2 ± 4.2 mmol/L
- BUN (Female, 100 mg/kg, d0): 5.9 ± 1.1 mmol/L
- CHOL (Female, 100 mg/kg, d0): 3.8 ± 1.3 mmol/L
- CPK (Female, 100 mg/kg, d0): 187.6 ± 75.0 U · L^−1
- CREA (Female, 100 mg/kg, d0): 55.2 ± 4.7 µM
- K (Female, 100 mg/kg, d0): 4.5 ± 0.4 mmol/L
- Na (Female, 100 mg/kg, d0): 149.4 ± 1.9 mmol/L
- BUN (Female, 100 mg/kg, d14): 6.4 ± 0.8 mmol/L
- CHOL (Female, 100 mg/kg, d14): 2.9 ± 0.6 mmol/L
- CPK (Female, 100 mg/kg, d14): 247.2 ± 89.5 U · L^−1
- CREA (Female, 100 mg/kg, d14): 55.2 ± 3.8 µM
- K (Female, 100 mg/kg, d14): 4.7 ± 0.5 mmol/L
- Na (Female, 100 mg/kg, d14): 149.8 ± 3.7 mmol/L
- BUN (Female, 100 mg/kg, d26): 6.4 ± 1.6 mmol/L
- CHOL (Female, 100 mg/kg, d26): 3.1 ± 0.5 mmol/L
- CPK (Female, 100 mg/kg, d26): 195.0 ± 96.8 U · L^−1
- CREA (Female, 100 mg/kg, d26): 51.2 ± 3.6 µM
- K (Female, 100 mg/kg, d26): 4.8 ± 0.6 mmol/L
- Na (Female, 100 mg/kg, d26): 149.6 ± 3.8 mmol/L
- BUN (Female, 100 mg/kg, d 56): 5.2 ± 0.2 mmol/L
- CHOL (Female, 100 mg/kg, d 56): 3.6 ± 0.2 mmol/L
- CPK (Female, 100 mg/kg, d 56): 112.0 ± 12.7 U · L^−1
- CREA (Female, 100 mg/kg, d 56): 54.5 ± 4.9 µM
- K (Female, 100 mg/kg, d 56): 4.2 ± 0.2 mmol/L
- Na (Female, 100 mg/kg, d 56): 147.9 ± 1.3 mmol/L
- BUN (Female, 450 mg/kg, d0): 6.1 ± 0.7 mmol/L
- CHOL (Female, 450 mg/kg, d0): 3.3 ± 0.4 mmol/L
- CPK (Female, 450 mg/kg, d0): 163.2 ± 56.2 U · L^−1
- CREA (Female, 450 mg/kg, d0): 54.4 ± 7.1 µM
- K (Female, 450 mg/kg, d0): 5.1 ± 0.5 mmol/L
- Na (Female, 450 mg/kg, d0): 150.1 ± 2.2 mmol/L
- BUN (Female, 450 mg/kg, d14): 14.3 ± 11.8 mmol/L
- CHOL (Female, 450 mg/kg, d14): 2.4 ± 0.9 mmol/L
- CPK (Female, 450 mg/kg, d14): 815.2 ± 1316.0 U · L^−1
- CREA (Female, 450 mg/kg, d14): 162 ± 204 µM
- K (Female, 450 mg/kg, d14): 5.5 ± 0.2 mmol/L
- Na (Female, 450 mg/kg, d14): 144.6 ± 3.5 mmol/L
- BUN (Female, 450 mg/kg, d26): 9.7 ± 1.0 mmol/L
- CHOL (Female, 450 mg/kg, d26): 2.0 ± 0.7 mmol/L
- CPK (Female, 450 mg/kg, d26): 328.5 ± 259.1 U · L^−1
- CREA (Female, 450 mg/kg, d26): 64.3 ± 7.1 µM
- K (Female, 450 mg/kg, d26): 5.3 ± 0.4 mmol/L
- Na (Female, 450 mg/kg, d26): 145.0 ± 2.6 mmol/L
- BUN (Female, 450 mg/kg, d 56): 5.6 ± 0.6 mmol/L
- CHOL (Female, 450 mg/kg, d 56): 3.1 ± 0.3 mmol/L
- CPK (Female, 450 mg/kg, d 56): 290.0 ± 176.8 U · L^−1
- CREA (Female, 450 mg/kg, d 56): 57 ± 2.8 µM
- K (Female, 450 mg/kg, d 56): 4.8 ± 0.2 mmol/L
- Na (Female, 450 mg/kg, d 56): 145.7 ± 0.9 mmol/L
- BUN (Male, 20 mg/kg, d0): 5.1 ± 0.9 mmol/L
- CHOL (Male, 20 mg/kg, d0): 2.9 ± 0.5 mmol/L
- CPK (Male, 20 mg/kg, d0): 156.6 ± 76.3 U · L^−1
- CREA (Male, 20 mg/kg, d0): 64.2 ± 7.2 µM
- K (Male, 20 mg/kg, d0): 5.1 ± 0.3 mmol/L
- Na (Male, 20 mg/kg, d0): 148.7 ± 2.0 mmol/L
- BUN (Male, 20 mg/kg, d14): 4.8 ± 0.5 mmol/L
- CHOL (Male, 20 mg/kg, d14): 2.6 ± 0.4 mmol/L
- CPK (Male, 20 mg/kg, d14): 128.2 ± 50.8 U · L^−1
- CREA (Male, 20 mg/kg, d14): 65 ± 4.3 µM
- K (Male, 20 mg/kg, d14): 4.6 ± 0.3 mmol/L
- Na (Male, 20 mg/kg, d14): 148.7 ± 1.6 mmol/L
- BUN (Male, 20 mg/kg, d26): 5.6 ± 0.3 mmol/L
- CHOL (Male, 20 mg/kg, d26): 2.7 ± 0.5 mmol/L
- CPK (Male, 20 mg/kg, d26): 154.4 ± 21.5 U · L^−1
- CREA (Male, 20 mg/kg, d26): 64 ± 5.5 µM
- K (Male, 20 mg/kg, d26): 5.4 ± 0.9 mmol/L
- Na (Male, 20 mg/kg, d26): 147.9 ± 1.9 mmol/L
- BUN (Male, 20 mg/kg, d 56): 5.2 ± 0.4 mmol/L
- CHOL (Male, 20 mg/kg, d 56): 2.6 ± 0.1 mmol/L
- CPK (Male, 20 mg/kg, d 56): 161.0 ± 87.7 U · L^−1
- CREA (Male, 20 mg/kg, d 56): 64 ± 5.7 µM
- K (Male, 20 mg/kg, d 56): 5.3 ± 1.1 mmol/L
- Na (Male, 20 mg/kg, d 56): 144.6 ± 1.6 mmol/L
- BUN (Male, 100 mg/kg, d0): 5.7 ± 0.5 mmol/L
- CHOL (Male, 100 mg/kg, d0): 3.6 ± 0.4 mmol/L
- CPK (Male, 100 mg/kg, d0): 161.4 ± 12.3 U · L^−1
- CREA (Male, 100 mg/kg, d0): 66.6 ± 8.6 µM
- K (Male, 100 mg/kg, d0): 4.8 ± 0.4 mmol/L
- Na (Male, 100 mg/kg, d0): 149.1 ± 2.9 mmol/L
- BUN (Male, 100 mg/kg, d14): 6.1 ± 1.5 mmol/L
- CHOL (Male, 100 mg/kg, d14): 3.0 ± 0.6 mmol/L
- CPK (Male, 100 mg/kg, d14): 213.4 ± 67.1 U · L^−1
- CREA (Male, 100 mg/kg, d14): 63 ± 4.1 µM
- K (Male, 100 mg/kg, d14): 4.8 ± 0.4 mmol/L
- Na (Male, 100 mg/kg, d14): 148.3 ± 2.5 mmol/L
- BUN (Male, 100 mg/kg, d26): 5.9 ± 1.0 mmol/L
- CHOL (Male, 100 mg/kg, d26): 2.8 ± 0.3 mmol/L
- CPK (Male, 100 mg/kg, d26): 179.8 ± 42.1 U · L^−1
- CREA (Male, 100 mg/kg, d26): 63 ± 8.5 µM
- K (Male, 100 mg/kg, d26): 5.2 ± 0.2 mmol/L
- Na (Male, 100 mg/kg, d26): 147.1 ± 2.4 mmol/L
- BUN (Male, 100 mg/kg, d 56): 5.7 ± 1.5 mmol/L
- CHOL (Male, 100 mg/kg, d 56): 2.8 ± 0.6 mmol/L
- CPK (Male, 100 mg/kg, d 56): 109.0 ± 9.9 U · L^−1
- CREA (Male, 100 mg/kg, d 56): 58.5 ± 3.5 µM
- K (Male, 100 mg/kg, d 56): 4.2 ± 0.0 mmol/L
- Na (Male, 100 mg/kg, d 56): 146.5 ± 0.7 mmol/L
- BUN (Male, 450 mg/kg, d0): 5.3 ± 0.6 mmol/L
- CHOL (Male, 450 mg/kg, d0): 3.4 ± 0.5 mmol/L
- CPK (Male, 450 mg/kg, d0): 140.4 ± 44.6 U · L^−1
- CREA (Male, 450 mg/kg, d0): 68.6 ± 5.1 µM
- K (Male, 450 mg/kg, d0): 5.2 ± 0.8 mmol/L
- Na (Male, 450 mg/kg, d0): 148.4 ± 2.5 mmol/L
- BUN (Male, 450 mg/kg, d14): 11.3 ± 6.7 mmol/L
- CHOL (Male, 450 mg/kg, d14): 1.8 ± 0.3 mmol/L
- CPK (Male, 450 mg/kg, d14): 290.2 ± 120.0 U · L^−1
- CREA (Male, 450 mg/kg, d14): 116 ± 74.4 µM
- K (Male, 450 mg/kg, d14): 5.0 ± 0.2 mmol/L
- Na (Male, 450 mg/kg, d14): 146.4 ± 3.3 mmol/L
- BUN (Male, 450 mg/kg, d26): 10.4 ± 3.1 mmol/L
- CHOL (Male, 450 mg/kg, d26): 1.7 ± 0.3 mmol/L
- CPK (Male, 450 mg/kg, d26): 133.6 ± 44.6 U · L^−1
- CREA (Male, 450 mg/kg, d26): 79 ± 2.8 µM
- K (Male, 450 mg/kg, d26): 5.2 ± 0.2 mmol/L
- Na (Male, 450 mg/kg, d26): 144.3 ± 2.2 mmol/L
- BUN (Male, 450 mg/kg, d 56): 5.1 ± 0.0 mmol/L
- CHOL (Male, 450 mg/kg, d 56): 2.8 ± 0.3 mmol/L
- CPK (Male, 450 mg/kg, d 56): 99.5 ± 7.8 U · L^−1
- CREA (Male, 450 mg/kg, d 56): 66.5 ± 3.5 µM
- K (Male, 450 mg/kg, d 56): 4.8 ± 0.8 mmol/L
- Na (Male, 450 mg/kg, d 56): 145.3 ± 1.1 mmol/L
- CREA (high-dose female that died early on d23, d14 data): 526 µM
- CHOL (high-dose males): significantly decreased
- Serum Na level (high-dose males, d26, statistically significant): decreased slightly
- BUN (high-dose, both sexes): significantly increased
- CPK (high-dose, both sexes): significantly increased
- CREA (high-dose, both sexes): significantly increased
